Source: US12006343B2, “C4BP-based compounds for treating immunological diseases” (FUNDACIO INSTITUT D'INVESTIGACIO BIOMEDICA DE BELLVITGE …, priority 2017, dated 2024)

Experiments:
[1] = system: human monocyte-derived DCs; assay: Immunomodulatory activity over human monocyte-derived DCs: CD83/CD86 surface expression by flow cytometry after LPS maturation; type: cell-based; details: Example 1
Procedure: In Vitro Functional Assessment of the Immunomodulatory Activity of Full-Length C4BP(β−) and C4BP(β−) Variants Over DCs
The inventors used for the in vitro study both C4BP(β+) (WT) and recombinant C4BP(β−) isoforms, and the above-referred mutants or variants: Mutant 1 and Mutant 2. C4BP(β+) isoforms refer to the major C4BP α7β1 plus the minor C4BP α6β1 isoforms (both in complex with ProS) purified from pooled human plasma.
RPMI 1640 was supplemented with 100 μg/ml of streptomycin, 100 IU/ml of penicillin, 2 mM L-glutamine (all from Invitrogen, Carlsbad, CA) and 10% heat-inactivated fetal bovine serum (Linus, Cultek, Spain) (complete medium), unless otherwise stated.
Peripheral blood mononuclear cells (PBMCs) were obtained from buffy coat preparations collected from healthy donors from the Blood and Tissue Bank (Barcelona, Spain) after Ficoll-Paque™ density centrifugation (GE Healthcare Bio-Sciences AB; Uppsala, Sweden). For surface phenotype determination, monocytes were plated at 1×10^6 cells/ml in 60 mm culture plates (Corning, Spain), in RPMI 1640 medium without serum, and allowed to adhere for 2 h at 37° C. in 5% CO2. The non-adherent cells were removed by washing in PBS.
Monocyte-derived DCs were generated supplementing the monocyte cultures with complete RPMI 1640 medium plus GM-CSF (800 UI/ml) and IL-4 (500 UI/ml) (both from Gentaur, Kampenhout, Belgium) at day 0 and day 3 of culture. For DC maturation, at day 5 iDCs were further stimulated for 48 h with 5 μg/ml LPS (Escherichia coli 055.B5, Sigma L2880, Copenhagen, Denmark).
Staining using the fluorescent dye 7-amino-actinomycin D (7-AAD) (BD Pharmigen) and flow cytometry analysis was employed to assess the viability status of C4BP-treated and untreated DCs.
Cell surface phenotypes were analyzed by flow cytometry using the following mAbs: FITC-conjugated anti-CD83 (HB15a) and PE-conjugated anti-CD86 (HA5.2B7) (all from Beckman-Coulter). The respective isotype controls FITC-conjugated anti-IgG2b (H2) and PE-conjugated anti-IgG2b (H2), were from the same commercial sources. After washing with PBS, cells were subsequently stained with 3 μl mAb/10^5 cells in 100 μl of FACS buffer (PBS containing 1% BSA and 0.1% sodium azide) for 20 min at room temperature. To exclude dead cells and debris, DCs were gated according to forward scatter (FSC) and side scatter (SSC) parameters. Stained cells were analyzed using a FACSCalibur (Becton Dickinson, Franklin Lakes, NJ) equipped with CellQuestPro software (Becton Dickinson).
In Vitro Functional Assessment of C4BP(β−) Immunomodulatory Activity Over DCs
The inventors used for the in vitro study both C4BP(+) and C4BP(β−) isoforms. C4BP(3+) isoforms refer to the major C4BP α7β1 plus the minor C4BP α6β1 isoforms (both in complex with ProS) purified from pooled human plasma, as previously described (Dahlbäck B. 1983. Biochem J., 209:847-56).

[2] = system: Balb/c male mice, CAIA model; type: in vivo, mouse; details: for ankle thickness: C4BP(β−) 50 μg sc d3 and d5, dexamethasone 1 mg/kg po d5-11, Enbrel 30 mg/kg sc d5-11; for body weight vs CAIA control group: mouse, in vivo
Text: Collagen-antibody induced arthritis (CAIA) is a simple mouse model of human rheumatoid arthritis (RA) induced by the systemic administration of a cocktail of monoclonal antibodies directed against conserved auto-antigenic collagen type II epitopes, followed by a single injection of lipopolysaccharide (LPS). CAIA is a useful model to study the effector inflammatory phase of arthritis without involving the priming phase of the immune response. The murine CAIA model shares several clinical, immunological and pathological features with RA. Therefore, this model is useful to study the pathogenic mechanisms involved in RA disease as well as for testing new therapies.
Balb/c male mice aged 7-8 weeks were supplied by Envigo. The animals were acclimated during 12 days. The animals were maintained in an environmentally controlled room with ventilation, temperature (22±2° C.), relative humidity (35-65%), and cycle light/dark (12 h/12 h). The animals were housed in groups of 3-5 animals/cage. The maintenance diet was supplied by Harlan Interfauna Ibérica, S. L. (“2014 Harlan Teklad Global Diets”) and they were feed diet and water ad libitum.
Plasmatic C4BP(β−) was supplied at a concentration of 6.2 mg/ml. C4BP(β−) solutions were prepared to the desired concentration 0.33 mg/ml (for 50 μg doses) by dilution with Dulbecco's phosphate-buffered saline (DPBS) of C4BP(β−) 6.2 mg/ml stock solution.
Two reference compounds were used: dexamethasone (Sigma, Ref. D1756) and Enbrel® (etanercept) (Pfizer, Ref. 655950).
Reference compound dexamethasone was dissolved in vehicle (0.1% Tween-80+99% carboxymethyl cellulose (CMC) (0.5% w/v) in water at a concentration of 0.1 mg/ml.
Enbrel® was prepared at 6 mg/ml in DPBS by dilution of 50 mg/mL stock solution.
Experimental Procedure Day 0: Arthritis Induction
On day 0, animals for experimental group C4BPd3 were randomly selected (n=8) and identified using tail code numbers and weighted.
Each mouse was sensitized by the administration of 2 mg anti-type II collagen antibodies cocktail (ArthritoMAB™ cocktail solution, 0.2 mL, i.v., day 0) in the caudal vein.
Day 3: LPS Synchronization
Animals were intraperitoneally administered with 0.1 mL of LPS solution (0.7 mg/ml, 70 μg/animal).
50 μg of C4BP(β−) were administered subcutaneously at day 3 to treatment group C4BPd3.
50 μg of C4BP(β−) were administered subcutaneously at day 5 to treatment group C4BPd3.
Day 5: Animal Distribution
On day 5 after sensitization, the rest of the animals developing clinical signs of arthritis (n=18) were evaluated and distributed in base of CAIA+incidence. Animals were homogeneously randomized (arthritis score) into the CAIA control group, dexamethasone (1 mg/kg at days 5-11, p.o.) and Enbrel®-treated groups (30 mg/kg at days 5-11, s.c.) (n=6). Animals were identified using tail code numbers and weighted.
Group 2 was not included in the distribution because of the previous test item administration.
The arthritis score was determined using the criteria of Table 9.
Treatment: • C4BPd3 group: 50 μg of C4BP(β−) were subcutaneously injected to animals on days 3 and 5. Volume: 0.150 mL. • Reference compound treatments and CAIA control groups (days 5-11): • Enbrel®: 30 mg/kg of Enbrel® was subcutaneously administered to Enbrel group from days 5 to 11. Volume: 5 mL/kg. • Dexamethasone: 1 mg/kg dexamethasone was orally administered to dexamethasone group from days 5 to 11. Volume: 10 mL/kg. • CAIA control group: 0.150 mL of DPBS was subcutaneously administered from days 5 to 11. Arthritis Monitoring:
Body weights were registered daily from days 0-12 in C4BPd3 and from days 5-12 in CAIA control, dexamethasone and Enbrel® groups. Arthritis scores were determined by the same observer in order to avoid observer bias.
The study was finished at day 12.
Animals were anesthetized with isoflurane. Ankles and wrists thickness were measured using a dial thickness gauge. Serum samples were collected and stored at −20° C. […]

Molecule | immunomodulatory activity over DCs [1] | inhibition of arthritis score vs. CAIA controls d12 ([2]; Enbrel 30 mg/kg sc days 5-11) | ankle thickness ([2]; day 12) | wrist thickness vs. CAIA control ([2]; day 12, regimens as Table 8) | body weight vs CAIA control group [2] | arthritis scores / progression of arthritis ([2]; regimens as Table 8, vs CAIA control group) | inhibition of arthritis score vs. CAIA controls AUC ([2]; C4BP(β−) 50 μg sc days 3 and 5, dexamethasone 1 mg/kg po days 5-11)
C4BP(CCP5-CCP8)(α7β0) [Mutant 1] | retains the immunomodulatory activity over DCs | – | – | – | – | – | –
etanercept [Enbrel] | – | 47% | 2.73±0.04 mm | No changes | No remarkable differences | progressive reduction of arthritis scores over time | –
C[C@@H]1C[C@H]2[C@@H]3CCC4=CC(=O)C=C[C@]4(C)[C@@]3(F)[C@@H](O)C[C@]2(C)[C@@]1(O)C(=O)CO [dexamethasone] | – | – | 2.63±0.05 mm | – | No remarkable differences | – | 73%
